Test results: patent US10500178B2, “LTB4 inhibition to prevent and treat human lymphedema” (The Board of Trustees of the Leland Stanford Junior …, priority 2015, dated 2019)

Legend:
S1P, S1pr1, Sphk1, eNOS = assay: S1P signaling in mouse lymphedema; format: in vivo; details: therapy initiated 3d after surgery
Protocol: (§1) All small molecule drugs were administered through daily intraperitoneal injection.
Quantification of LTB4, PGE2 and S1P with LC-MS/MS. Briefly, LTB4, PGE2 and S1P were separated from serum with an ACE reverse phase C18 HPLC column. Formic acid 0.5% in 5 mM NH4Ac (A) and formic acid 0.5% in acetonitrile/water (9/1) (B) were used as the mobile phase. Lipids were detected with positive multiple reaction monitor (MRM) scanning at 335.16/194.80 m/z for LTB4, 351.20/189.50 m/z for PGE2 and 330.20/264.40 m/z for S1P using a Sciex API-4000 MS/MS combined with a Shimazu 20A HPLC system. The internal standard of this method was Carbutamide. The quantification limit was 1 ng/ml. The calibration range was 1-2000 ng/ml. The accuracy of the standards and control samples ranged from 88.7% to 120%.

Notch signaling = Notch signaling in mouse lymphedema (NICD, Hey1, EphrinB2); format: in vivo; details: WT mice
Protocol: as §1
Western Blot HLECs were lysed with RIPA buffer containing protease and phosphatase inhibitors. Lysates were sonicated briefly and centrifuged. The supernatant was collected and protein concentration was determined by BCA assay. 60 µg of protein were resolved on a 10% SDS-PAGE gel, transferred to a nitrocellulose membrane, blocked with 5% milk and probed with one of the following antibodies: anti-Sphk1 (3297,Cell Signaling); antip-Sphk1(SP1641, ECM Biosciences); anti-NICD (ab8925,Abcam), anti-VEGFR3 (AF743,R&D); anti-DLL4 (ab7280, Abcam). Actin was used to normalize the total protein. […] Images were acquired by Zeiss 710 confocal microscopy and analyzed using ImageJ software.
Quantitative RT-PCR. Quantitative PCR (qRT-PCR) was performed using FastStart SYBR Green (Roche) on a Lightcycler 480. mRNA expression relative to GAPDH mRNA levels were calculated using the delta-delta threshold cycle (ΔΔCT) method. […]

LEC Notch1−/− mice = assay: lymphedema surgery in LEC Notch1-/- mice; format: in vivo, mouse
Excerpt: To generate lymphatic endothelial specific tdTomato reporter mice (Prox1-Cre-ER-tdTomato), Prox1-Cre-ER mice were crossed with tdTomato mice. To create lymphatic endothelial cell specific Notch1 or S1pr1 conditional knockouts, Prox1-Cre-ER mice were crossed with Notch1loxp/loxp or S1pr1loxp/loxp mice. Mice with Prox1-Cre-ER and both target alleles floxed by Prox1-Cre-ER/Notch1^loxp/loxp or Prox1-Cre-ER/S1pr1^loxp/loxp were considered to be either lymphatic endothelial cell-specific Notch1 knockout (LEC Notch1−/−) or S1pr1 knockout (LEC S1pr1^−/−), respectively. Mice expressing Prox1-Cre-ER were used as WT controls. […] Cre-mediated gene knockout efficiency was evaluated by enumerating Notch1- or S1PR1-expressing lymphatic endothelial cells or by qRT-PCR measurements of Notch1 or S1pr1 transcripts in the lymphatic endothelial cells, sorted by flow cytometry. […]
Tail volume quantitation. Tail-volume measurements at each designated time were quantified by observers blinded to the treatment status of the subjects. Tail volumes were calculated through a digital photographic technique pre-operatively, and post-operatively (d3, d9, d14, d20, and d24), using an Olympus D520 Zoom digital camera at SHQ resolution at a fixed distance from the subject (37 cm), as previously described. […]

For CC(C)C[C@H](NC(=O)[C@@H](O)[C@H](N)Cc1ccccc1)C(=O)O [bestatin, (2S)-2-[[(2S,3R)-3-amino-2-hydroxy-4-phenylbutanoyl]amino]-4-methylpentanoic acid], the “S1P and S1pr1 levels” value (S1P, S1pr1, Sphk1, eNOS) was “restored”, the “Sphk1 and eNOS expression” value (S1P, S1pr1, Sphk1, eNOS) was “normalized” and the “Hey1 and EphrinB2 expression in diseased lymphatics” value (Notch signaling) was “normalized”. For the same compound, the “NICD nuclear accumulation in mouse lymphedema” value (Notch signaling) was “restored”, the “response of lymphedema to therapy” value (LEC Notch1−/− mice) was “refractory” and the “mural smooth muscle coverage around collecting lymphatics” value (LEC Notch1−/− mice; as against WTs) was “not restituted”.
